# Test results as given in patent US11965219B2, “Process and apparatus for reduction in microbial growth in solutions of sugars extracted from waste materials” (UNIVERSITY OF LEEDS, priority 2018, dated 2024).
# System: microbial growth in solutions of sugar
# Experiment: Microbial contamination control procedure: dissolved oxygen and pH monitoring of solutions of sugars after adding a sterilisation agent
# Description: The process described is based upon the Fiberight industrial scale process, modified for a 1 litre reaction vessel. The amount of organic substrate used in the process is dependent on the required total solids (TS) content of the process. Typically, TS will be between 5-25%. TS is calculated using the required reaction mass and the solids content of the organic substrate, which is typically between 10-70%. (For a reaction mass of 1 kg, with a required TS of 8% (w/w), using organic substrate with a solids content of 32% (w/w), the amount of organic substrate needed for the process is 250 g). The organic substrate is sterilised in an autoclave at 125° C. for 1 hour immediately prior to use.
# The reaction vessel is sterilised prior to use by filling with […] and stirring for 1 hour. The ethanol is then drained and the heating jacket set to 50° C. prior to addition of the reaction components (water, organic substrate, and enzyme).
# The organic substrate is added to a preheated reaction vessel (50° C.) in one portion followed by sterilised water (the mass of water required=total reaction mass−mass of organic substrate) and stirred at between 200-600 RPM, depending on TS (higher TS requires a higher RPM to ensure thorough mixing). […] DO readings are taken throughout the process and are typically between 3-8 mg/L if no contamination is present. […] Typically this stops after T=3 hours and maintains linear readings. If contamination occurs the DO reading can drop to 0 mg/L, which typically happens between T=5-8 hours. […]
# Several sterilisation agents have been tested to determine their effectiveness in controlling microbial growth in solutions of sugar. The sterilisation agents were either introduced at T=0 or at the point that microbial growth is observed, which can be measured by the DO sensor. Typically, contamination can be said to occur when the DO reading starts to drop exponentially, eventually reaching 0 mg/L if no sterilisation agent is added. In these tests, software was used to monitor the DO readings and trigger the addition of an antimicrobial. […]
smiles,measurement,setting,value
[O][Cl+][O-] [chlorine dioxide],dissolved oxygen and pH levels / microbial growth,"0.05 wt % added at T=5 hrs 45 mins, T=50 hrs 30 mins and T=73 hrs 30 mins, FIG. 7","stabilise dissolved oxygen and pH levels, thereby preventing further microbial growth"
same,dissolved oxygen and pH levels / microbial growth,"0.35 wt % added at T=8 hrs 45 mins in a single aliquot, FIG. 6","stabilise dissolved oxygen and pH levels, thereby preventing further microbial growth"
same,pH drop (evidence of lactic acid production),"added in response to the drop in dissolved oxygen, FIGS. 6 and 7",prevented
